For one assay, the target named is RET (Homo sapiens (Human), UniProt P07949). Nature of the assay: Inhibitory activity on RET kinase (HTRF KinEASE-TK). It counts as biochemical. The conditions noted are these: ATP 16 μM. The source says: 3) Formulate 2.5× kinase with 1× kinase reaction buffer.
In general terms: TR-FRET usually uses a lanthanide donor and a delayed reading to cut background.

In a further assay the target is TRKA (Homo sapiens (Human), UniProt P04629). The assay can be described thus: Inhibitory activity on TRKA (ADP-Glo Kinase Assay). In general terms: ADP-Glo first removes unused ATP, then detects ADP through luciferase.
Sequence of TRKA (P04629 33-796 limits assumed): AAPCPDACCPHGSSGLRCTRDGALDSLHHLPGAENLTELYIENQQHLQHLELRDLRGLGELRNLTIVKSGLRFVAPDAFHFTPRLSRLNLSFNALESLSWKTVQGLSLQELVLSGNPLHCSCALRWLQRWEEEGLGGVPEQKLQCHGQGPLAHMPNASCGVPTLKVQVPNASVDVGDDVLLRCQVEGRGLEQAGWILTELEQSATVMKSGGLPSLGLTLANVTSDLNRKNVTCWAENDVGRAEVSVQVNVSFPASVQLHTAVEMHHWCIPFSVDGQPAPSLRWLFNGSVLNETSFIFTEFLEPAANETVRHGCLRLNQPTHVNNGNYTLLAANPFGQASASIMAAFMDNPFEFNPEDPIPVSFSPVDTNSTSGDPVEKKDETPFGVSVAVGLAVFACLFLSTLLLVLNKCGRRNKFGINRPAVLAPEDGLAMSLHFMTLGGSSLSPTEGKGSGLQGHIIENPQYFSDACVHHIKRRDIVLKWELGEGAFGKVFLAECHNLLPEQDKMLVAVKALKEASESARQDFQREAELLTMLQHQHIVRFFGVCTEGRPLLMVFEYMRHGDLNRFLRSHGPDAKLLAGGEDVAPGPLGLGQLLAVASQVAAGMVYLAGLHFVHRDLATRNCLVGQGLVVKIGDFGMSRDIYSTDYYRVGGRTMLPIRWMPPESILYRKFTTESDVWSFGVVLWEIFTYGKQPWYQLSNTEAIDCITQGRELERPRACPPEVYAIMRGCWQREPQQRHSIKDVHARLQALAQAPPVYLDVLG
Another assay addresses TRKB (Homo sapiens (Human), UniProt Q16620). Nature of the assay: Inhibitory activity on TRKB (ADP-Glo Kinase Assay).
For another assay, the target named is TRKC (Homo sapiens (Human), UniProt Q16288). Nature of the assay: Inhibitory activity on TRKC (ADP-Glo Kinase Assay).
Sequence of TRKC (Q16288 32-839): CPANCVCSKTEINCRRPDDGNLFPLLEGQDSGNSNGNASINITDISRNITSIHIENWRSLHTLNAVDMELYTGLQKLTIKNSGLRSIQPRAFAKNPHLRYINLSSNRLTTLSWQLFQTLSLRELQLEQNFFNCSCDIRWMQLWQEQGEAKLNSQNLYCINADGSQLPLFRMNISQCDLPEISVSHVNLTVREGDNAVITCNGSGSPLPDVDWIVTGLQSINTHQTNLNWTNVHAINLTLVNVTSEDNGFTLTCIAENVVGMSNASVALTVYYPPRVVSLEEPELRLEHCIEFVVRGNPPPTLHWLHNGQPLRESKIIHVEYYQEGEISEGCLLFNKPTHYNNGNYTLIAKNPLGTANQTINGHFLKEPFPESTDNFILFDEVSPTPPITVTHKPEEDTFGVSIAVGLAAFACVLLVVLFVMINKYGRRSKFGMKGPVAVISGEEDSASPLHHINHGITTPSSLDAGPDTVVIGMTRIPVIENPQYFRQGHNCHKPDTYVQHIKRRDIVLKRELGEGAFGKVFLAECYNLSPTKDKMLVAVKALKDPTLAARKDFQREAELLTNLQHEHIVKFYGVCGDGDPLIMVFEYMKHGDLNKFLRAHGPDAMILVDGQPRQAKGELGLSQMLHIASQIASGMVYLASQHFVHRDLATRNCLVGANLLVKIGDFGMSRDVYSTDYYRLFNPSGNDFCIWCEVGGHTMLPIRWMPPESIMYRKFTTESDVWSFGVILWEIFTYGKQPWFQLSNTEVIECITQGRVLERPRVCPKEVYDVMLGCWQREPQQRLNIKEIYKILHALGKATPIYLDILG
Assay [1] relates to allergic rhinitis model in mice. The assay can be described thus: Allergic rhinitis model in mice (OVA). As to conditions: for Rhinitis behavioral scoring: 7-day treatment, MDI-1233 10 mg/kg, MDI-1228 3 mg/kg, fluticasone propionate positive control. In kind it is in vivo, BALB/C mice. The method, then: 42-49 day-old BALB/C mice (Manufacturer: Liaoning Changsheng Biotechnology Co., Ltd., License Number: SCXK(therapeutic)2015-0001), both male and female, were reared under conventional diet, at a temperature of 20 to 26° C., and a humidity of 40% to 70%. Animal grouping and modeling: • 1. Blank control group (no treatment) • 2. Allergic rhinitis group (vehicle treatment: saline containing 0.2% Tween 80) • 3. Allergic rhinitis+compound MDI-1233: 1 mg/kg • 4. Allergic rhinitis+compound MDI-1233: 3 mg/kg • 5. Allergic rhinitis+compound MDI-1233: 10 mg/kg • 6. Allergic rhinitis+compound MDI-1228: 3 mg/kg • 7. Allergic rhinitis+compound MDI-1288: 3 mg/kg • 8. Allergic rhinitis+positive control group (Fluticasone propionate, GlaxoSmithKline, E88D
The preparation of an AR model in mice involved sensitizing and challenging BALB/c mice with ovalbumin (OVA) to simulate an acute symptoms caused by natural exposure to an allergen. The experimental animals were weighed and separated by gender. Sensitization was performed on days 1, 5, 9, and 12. From day 13, a daily challenge was carried out for 7 consecutive days. After the last challenge, behavior of the mice was observed and scored. The sensitization method involved intraperitoneal injection of an OVA (Sigma, A5503-1G) suspension in 50 μg/ml in which the OVA suspension was prepared by dissolving 500 μg of ovalbumin and 50 mg of AL(OH)3 (CAS 21645-51-2) into 10 ml of normal saline, pH 7.4, with 200 μl injected per mouse. […] On day 12, a single nasal challenge with 10% OVA was performed (PBS was used for the control group). Scoring was conducted according to the table below, using a superposition method to calculate the total score. A total score greater than 5 was considered as successful. Subsequent experiments were conducted after the modeling was deemed successful.
From day 13, compound administration and challenge were conducted. The compound administration method involved calculating the nasal drops volume according to the mouse's body weight and group requirements, and dissolving the compounds MDI-1233, MDI-1228, MDI-1288 into normal saline containing 0.2% Tween 80 at specific concentrations. The administration was given 30 minutes before the challenge, twice a day. The positive control treatment involved administering nasal drop once (10 μl per side) 30 minutes before OVA nasal stimulation, twice a day. Thirty minutes after the second drug administration, a 10% OVA challenge was conducted, and the amount of nasal discharge, sneezing, and nose scratching were observed and recorded within 30 minutes after each challenge and then scored. The control group was treated with normal saline nasal drops.
After the rhinitis modeling was completed and the scores were stable, mice of each group were anesthetized and sacrificed after a 20-day scoring. Samples were collected, and peripheral serum was obtained by collecting whole blood, and standing it at room temperature for 1 hour and then centrifuging it to collect the supernatant for ELISA detection; nasal mucosa was taken for HE staining (fixed with 10% formalin); and the supernatant of nasal lavage fluid was taken for ELISA detection.
(1) HE Staining: The tissue was rinsed with running water for several hours, dehydrated through a series of ethanol solutions (70%, 80%, 90%), and then treated with a mixture of pure alcohol and xylene for 15 minutes, followed by xylene I for 15 minutes and xylene I1 for 15 minutes (until transparent). The tissue was then placed in a mixture of xylene and paraffin at a volume ratio of 1:1 for 15 minutes, followed by immersion with paraffin I and paraffin II each for 50-60 minutes. The tissue was embedded in paraffin and sectioned, and the sections were spreaded, dried, dewaxed and hydrated in distilled water. […]

Assay [2] deals with ovalbumin-induced asthma model in mice. Nature of the assay: Ovalbumin-induced asthma model in mice. In kind it is in vivo, Balb/c mice. As to conditions: nasal administration BID 5 days: MDI-1228 3 mg/kg, MDI-1288 3 mg/kg, MDI-1233 1, 3, 10 mg/kg. The method, then: After 7 days of acclimatization, animals were randomly grouped based on their body weight. The experiment was divided into 8 groups, with 8 mice in each group, as detailed in the table below.
• Preparation of Immunogen: Weigh an appropriate amount of OVA, to which an appropriate amount of PBS was added, to achieve a final concentration of 0.1 mg/ml. Then, an equal volume of aluminum adjuvant was added, and the resulting mixture was mixed well, and stored at 4° C., which was prepared before use. • Preparation of Sensitizer (5% OVA): Weigh an appropriate amount of OVA, to which an appropriate amount of PBS was added, to achieve a final concentration of 5%. The resulting mixture was mixed well, and store it at 4° C. for later use, which was prepared before use. • Preparation of Vehicle: Add 200 μl of Tween 80 to 100 ml of saline, and mix it well. […] Mix it well, and store it at 4° C. for later use. […] Mix it well, and store it at 4° C. for later use. […] Mix it well, and store it at 4° C. for later use. The solution was prepared once every three days.
• Immunization: On days 0, 7, 14, and 21, 200 μl of PBS was injected intraperitoneally for the first group, and 200 μl of (10 μg) OVA/aluminum adjuvant emulsion was injected intraperitoneally for groups 2-8. • Sensitization: From days 28 to 32, the first group of animals was exposed to nebulized PBS in a nebulization box for 20 minutes, and the groups 2-8 were exposed to nebulized 5% OVA in a nebulization box for 20 minutes. And then, they were removed. The sensitization was conducted at 12:30 PM daily. • Administration: The medicine was administrated twice a day at 9 AM and 5 PM via nasal drops. Dexamethasone (Dex) was administered by gavage once a day at 9 AM.
Serum IgE: Blood was collected from the orbits of animals after carbon dioxide euthanasia, and plasma was separated and stored at −40 degrees for plasma IgE detection.
Bronchoalveolar Lavage Fluid (BALF) Cell Count: An appropriate amount of foetal bovine serum was weighted and dissolved in PBS to a final concentration of 1%. After orbital blood collection, the trachea was exposed, and a 1 ml syringe needle was replaced with a mouse gavage needle. 0.8 ml of the lavage fluid was aspirated from the syringe and the lungs were lavaged three times. The lavage fluids were collected, and centrifuged at 1000 rpm for 10 minutes, and the supernatant was collected and stored at −40 degrees Celsius. Cells were resuspended with 1 ml of PBS and counted. 100 ul of centrifuged smear was taken and stained with Diff quick and the number of eosinophils, basophils, lymphocytes and macrophages were recorded.
Bronchoalveolar Lavage Fluid IL-5: Bronchoalveolar lavage fluid was collected to detect IL-5.
Pathological scoring criteria were: • A) 0 points: No lymphocyte infiltration; • B) 1 point: Trace lymphocyte infiltration; • C) 2 points: Mild lymphocyte infiltration; • D) 3 points: Moderate lymphocyte infiltration; • E) 4 points: Severe lymphocyte infiltration; • After scoring, the results were calculated and analyzed.

Where [3] appears, read: nasal drops twice a day, MDI-1288 3 mg/kg.
[4] abbreviates: vs. vehicle (model) group, dexamethasone 1 mg/kg gavage QD.

Usually IC50 stands for the concentration needed to halve the response being measured.

Like-named read-outs stand apart in the source and are kept apart here.

Sequence of TRKB (Q16620 32-822): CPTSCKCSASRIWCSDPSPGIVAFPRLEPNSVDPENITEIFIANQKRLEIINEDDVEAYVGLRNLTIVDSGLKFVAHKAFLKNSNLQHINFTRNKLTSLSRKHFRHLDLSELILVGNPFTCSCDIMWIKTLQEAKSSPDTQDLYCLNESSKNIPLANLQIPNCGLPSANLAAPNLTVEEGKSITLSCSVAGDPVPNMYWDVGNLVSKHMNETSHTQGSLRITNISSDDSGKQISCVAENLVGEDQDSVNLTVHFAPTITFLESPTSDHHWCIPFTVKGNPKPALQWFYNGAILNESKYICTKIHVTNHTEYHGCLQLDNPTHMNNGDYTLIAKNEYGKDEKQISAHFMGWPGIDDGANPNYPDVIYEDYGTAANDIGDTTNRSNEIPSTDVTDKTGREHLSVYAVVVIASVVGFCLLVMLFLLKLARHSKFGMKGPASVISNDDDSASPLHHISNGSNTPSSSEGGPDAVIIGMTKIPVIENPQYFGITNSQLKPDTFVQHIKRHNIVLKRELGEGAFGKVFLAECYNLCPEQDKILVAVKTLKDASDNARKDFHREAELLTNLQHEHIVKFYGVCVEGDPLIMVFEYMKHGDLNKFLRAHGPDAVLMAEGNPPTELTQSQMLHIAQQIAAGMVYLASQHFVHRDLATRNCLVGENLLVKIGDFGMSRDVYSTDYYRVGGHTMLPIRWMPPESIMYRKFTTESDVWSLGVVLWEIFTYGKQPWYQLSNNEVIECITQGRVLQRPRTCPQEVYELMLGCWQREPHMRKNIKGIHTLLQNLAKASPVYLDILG
Sequence of RET (P07949 29-1114): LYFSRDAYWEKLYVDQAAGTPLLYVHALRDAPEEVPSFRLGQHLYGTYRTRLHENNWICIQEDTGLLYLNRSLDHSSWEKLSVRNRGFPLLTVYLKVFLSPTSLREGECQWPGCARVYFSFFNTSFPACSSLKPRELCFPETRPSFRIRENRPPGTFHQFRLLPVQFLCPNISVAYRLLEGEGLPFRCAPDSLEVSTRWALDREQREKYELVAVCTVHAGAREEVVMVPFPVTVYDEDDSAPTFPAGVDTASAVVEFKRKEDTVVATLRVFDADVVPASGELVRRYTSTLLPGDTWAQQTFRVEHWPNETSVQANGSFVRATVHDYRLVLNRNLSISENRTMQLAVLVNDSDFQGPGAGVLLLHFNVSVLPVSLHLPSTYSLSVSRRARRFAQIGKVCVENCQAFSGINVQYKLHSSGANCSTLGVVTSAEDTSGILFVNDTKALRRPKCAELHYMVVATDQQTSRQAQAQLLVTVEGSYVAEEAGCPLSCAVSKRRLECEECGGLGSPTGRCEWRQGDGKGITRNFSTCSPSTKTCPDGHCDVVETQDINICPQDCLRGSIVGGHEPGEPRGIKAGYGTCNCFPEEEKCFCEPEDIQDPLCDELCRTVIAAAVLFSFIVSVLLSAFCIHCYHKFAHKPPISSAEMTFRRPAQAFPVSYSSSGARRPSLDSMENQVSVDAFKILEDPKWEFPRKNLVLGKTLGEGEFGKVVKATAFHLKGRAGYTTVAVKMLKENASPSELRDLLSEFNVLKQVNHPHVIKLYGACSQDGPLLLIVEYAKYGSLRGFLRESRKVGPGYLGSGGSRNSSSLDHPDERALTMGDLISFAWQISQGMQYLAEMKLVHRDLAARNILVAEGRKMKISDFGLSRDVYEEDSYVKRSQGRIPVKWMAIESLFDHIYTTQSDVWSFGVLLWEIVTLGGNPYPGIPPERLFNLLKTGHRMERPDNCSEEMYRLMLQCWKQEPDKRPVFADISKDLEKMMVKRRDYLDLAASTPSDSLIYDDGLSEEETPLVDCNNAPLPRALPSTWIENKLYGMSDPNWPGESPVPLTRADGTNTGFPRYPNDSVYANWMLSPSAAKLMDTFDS

In the case of `CCc1cc(O)c(F)cc1-c1ccc2c(-c3nc4c([nH]3)CN(C(=O)N3CCN(C)CC3)C4)n[nH]c2c1` [MDI-235, (2-(6-(2-ethyl-5-fluoro-4-hydroxyphenyl)-1H-indazol-3-yl)-4,6-dihydropyrrolo[3,4-d]imidazol-5-(1H)-yl)(4-methylpiperazin-1-yl)ketone], the IC50 on RET was 0.1 nM; at TRKA, 0.57 nM; against TRKB it was 1.39 nM; at TRKC it was 0.27 nM.
For `CCNC(=O)N1Cc2nc(-c3n[nH]c4cc(-c5cc(F)c(O)cc5CC)ccc34)[nH]c2C1` [MDI-247, 2-(6-(2-ethyl-5-fluoro-4-hydroxyphenyl)-1H-indazol-3-yl)-N-ethyl-4,6-dihydropyrrolo[3,4-d]imidazol-5-(1H)-carboxamide], the 50% inhibitory concentration (IC50) at RET was determined as 8.36 nM; on TRKA (read-out: TRKA IC50, ATP 5 μM), 10.3 nM; on TRKB (read-out: TRKB IC50, ATP 5 μM), 34.2 nM; at TRKC (read-out: TRKC IC50, ATP 5 μM) it was 3.73 nM.
As for `CCc1cc(O)c(F)cc1-c1ccc2c(-c3nc4c([nH]3)CN(C(=O)N3CCC(O)CC3)C4)n[nH]c2c1` [MDI-245, (2-(6-(2-ethyl-5-fluoro-4-hydroxyphenyl)-1H-indazol-3-yl)-4,6-dihydropyrrolo[3,4-d]imidazol-5(1H)-yl)(4-hydroxylpiperidin-1-yl)ketone], the IC50 stood at 0.99 nM against RET, 0.83 nM against TRKA, 3.37 nM against TRKB and 0.57 nM against TRKC.
Turning to `CCC(=O)O[C@]1(C(=O)SCF)[C@H](C)C[C@H]2[C@@H]3C[C@H](F)C4=CC(=O)C=C[C@]4(C)[C@@]3(F)[C@@H](O)C[C@@]21C` [fluticasone propionate, reference compound], the “Nasal mucosa pathology (HE staining)” value in assay [1] (MDI-1288 3 mg/kg, fluticasone propionate 10 μl per side, nasal drops twice a day) is “inhibited the progression of rhinitis and promoted repair of cilia on the nasal mucosa”. For the same molecule, in assay [1] (setting [3]), the Rhinitis behavioral scoring entry is on record as “significant effects on inhibiting the rhinitis behavior”.
As for `CCc1cc(O)c(F)cc1-c1ccc2c(-c3nc4c([nH]3)CN(C(=O)C3CC3)C4)n[nH]c2c1` [MDI-1233, cyclopropyl (2-(6-(2-ethyl-5-fluoro-4-hydroxyphenyl)-1H-indazol-3-yl)pyrrolo[3,4-d]imidazol-5(1H,4H,6H)-yl)ketone], the IC50 turned out to be 4.21 nM on RET; 12.2 nM on TRKA (read-out: TRKA IC50, ATP 5 μM); 4.16 nM at TRKB (read-out: TRKB IC50, ATP 5 μM); 5.91 nM at TRKC (read-out: TRKC IC50, ATP 5 μM). Also, in assay [2], the “Therapeutic effect on the asthma animal model (lung tissue pathological scoring)” value is “good therapeutic effect”. In addition, the “Bronchoalveolar lavage fluid IL-5 expression level” value in assay [2] (setting [4]) is “could reduce IL-5 expression in all three dosage”. For the same molecule, in assay [2] (setting [4]), the “Inflammatory cell count in bronchoalveolar lavage fluid” value is “could reduce the Inflammatory Cell Count in all three dosage”. In addition, in assay [2] (setting [4]), the “Lung tissue inflammatory cell infiltration (HE pathology)” value was “could reduce the lung tissue inflammatory cell infiltration in all three dosage”. Besides, the “Serum IgE expression level” value in assay [2] (setting [4]) is “could reduce IgE expression in all three dosage”. The “Nasal mucosa pathology (HE staining)” value in assay [1] (MDI-1233 1 mg/kg and 3 mg/kg nasal drops twice a day) is “still accompanied by bleeding, inflammatory cell infiltration, cilia shedding”; in assay [1] (MDI-1233 10 mg/kg nasal drops twice a day), “the nasal mucosal cilia repair effect was significant”. The Rhinitis behavioral scoring entry in assay [1] (setting [3]) was “demonstrated inhibitory effects on the male mouse rhinitis model”.
Take `CCc1cc(O)c(F)cc1-c1ccc2c(-c3nc4c([nH]3)CN(C(=O)c3cnc(N5CCOCC5)cn3)C4)n[nH]c2c1` [MDI-201, (2-(6-(2-ethyl-5-fluoro-4-hydroxyphenyl)-1H-indazol-3-yl)-4,6-dihydropyrrolo[3,4-d]imidazol-5(1H)-yl)(5-morpholinepyrazin-2-yl)ketone]: the 50% inhibitory concentration (IC50) is 5.76 nM against TRKA, 6.14 nM on TRKB and 2.2 nM at TRKC.

Source of the values: US20250387388A1, “COMPOUND AS TRK INHIBITOR AND/OR RET INHIBITOR AND USE THEREOF” (Medinno Pharmaceutical Technology (Zhuhai) Co., Ltd., priority 2022, published 2025).
